Reference: PubChem BioAssay (NCI)
Several values for one entry are separate records, joined by “and”; a condition that tells them apart may be missing. Identical values can stand only once.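 All cell lines were grown in 96-well plates and treated with compound for 48 hours. Here, GI50 denotes the concentration required for 50% inhibition of growth. TGI marks complete inhibition of growth.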

Legend:
Assay in all cases: NCI tumour cell line growth inhibition, 48 h
786-0 renal = system: 786-0 renal
A498 renal = system: A498 renal
A549 NSCLC = system: A549 NSCLC
ACHN renal = system: ACHN renal
BT-549 breast = system: BT-549 breast
CAKI-1 renal = system: CAKI-1 renal
CCRF-CEM leukemia = system: CCRF-CEM leukemia
COLO 205 colon = system: COLO 205 colon
DU-145 prostate = system: DU-145 prostate
EKVX NSCLC = system: EKVX NSCLC
HCC-2998 colon = system: HCC-2998 colon
HCT-116 colon = system: HCT-116 colon
HCT-15 colon = system: HCT-15 colon
HOP-62 NSCLC = system: HOP-62 NSCLC
HOP-92 NSCLC = system: HOP-92 NSCLC
HS 578T breast = system: HS 578T breast
HT29 colon = system: HT29 colon
IGROV1 ovarian = system: IGROV1 ovarian
K-562 leukemia = system: K-562 leukemia
KM12 colon = system: KM12 colon
LOX IMVI melanoma = system: LOX IMVI melanoma
M14 melanoma = system: M14 melanoma
MALME-3M melanoma = system: MALME-3M melanoma
MCF7 breast = system: MCF7 breast
MDA-MB-231 breast = system: MDA-MB-231 breast
MDA-MB-435 = system: MDA-MB-435
MDA-N = system: MDA-N
MOLT-4 leukemia = system: MOLT-4 leukemia
NCI-H226 lung = system: NCI-H226 lung
NCI-H23 lung = system: NCI-H23 lung
NCI-H460 lung = system: NCI-H460 lung
NCI-H522 lung = system: NCI-H522 lung
NCI/ADR-RES ovarian = system: NCI/ADR-RES ovarian
OVCAR-3 ovarian = system: OVCAR-3 ovarian
OVCAR-4 ovarian = system: OVCAR-4 ovarian
OVCAR-5 ovarian = system: OVCAR-5 ovarian
OVCAR-8 ovarian = system: OVCAR-8 ovarian
PC-3 prostate = system: PC-3 prostate
RPMI-8226 leukemia = system: RPMI-8226 leukemia
RXF 393 renal = system: RXF 393 renal
SF-268 CNS = system: SF-268 CNS
SF-295 CNS = system: SF-295 CNS
SF-539 CNS = system: SF-539 CNS
SK-MEL-2 melanoma = system: SK-MEL-2 melanoma
SK-MEL-28 melanoma = system: SK-MEL-28 melanoma
SK-MEL-5 melanoma = system: SK-MEL-5 melanoma
SK-OV-3 ovarian = system: SK-OV-3 ovarian
SN12C renal = system: SN12C renal
SNB-19 CNS = system: SNB-19 CNS
SNB-75 CNS = system: SNB-75 CNS
SR leukemia = system: SR leukemia
SW-620 colon = system: SW-620 colon
T-47D breast = system: T-47D breast
TK-10 renal = system: TK-10 renal
U251 CNS = system: U251 CNS
UACC-257 melanoma = system: UACC-257 melanoma
UACC-62 melanoma = system: UACC-62 melanoma
UO-31 renal = system: UO-31 renal
HL-60(TB) leukemia = system: HL-60(TB) leukemia

`O=c1cc(/C=C/c2ccc(O)c(O)c2)cc(/C=C/c2ccc(O)c(O)c2)o1` was tested, and the GI50 (786-0 renal) was 5.85 µM, the TGI (786-0 renal) was 50 µM and 23.2 µM and the TGI (A498 renal) was 23.4 µM. For the same molecule, the GI50 (A549 NSCLC) was 5.48 µM, the TGI (A549 NSCLC) was 50 µM and 18.9 µM and the GI50 (ACHN renal) was 4.01 µM. For the same molecule, the TGI (ACHN renal) was 18.8 µM and 14.5 µM, the GI50 (BT-549 breast) was 4.59 µM and the TGI (BT-549 breast) was 38.1 µM and 16.8 µM. For the same molecule, the GI50 (CAKI-1 renal) was 4.92 µM, the TGI (CAKI-1 renal) was 31.9 µM and 14.6 µM and the GI50 (CCRF-CEM leukemia) was 2.53 µM. For the same molecule, the TGI (CCRF-CEM leukemia) was 27.1 µM and 4.86 µM, the GI50 (COLO 205 colon) was 19.1 µM and the TGI (COLO 205 colon) was 24.6 µM and 34.4 µM. The GI50 (DU-145 prostate) was 5.29 µM, the TGI (DU-145 prostate) was 20.2 µM and 22.1 µM and the TGI (EKVX NSCLC) was 15 µM and 21.9 µM. The TGI (HCC-2998 colon) was 19.3 µM, the GI50 (HCT-116 colon) was 4.17 µM and the TGI (HCT-116 colon) was 15.6 µM and 15.3 µM. The GI50 (HCT-15 colon) was 4.47 µM, the TGI (HCT-15 colon) was 24.1 µM and 18.1 µM and the TGI (HOP-62 NSCLC) was 24.8 µM and 22.7 µM. The GI50 (HOP-92 NSCLC) was 5.16 µM, the TGI (HOP-92 NSCLC) was 47.6 µM and 17.3 µM and the GI50 (HS 578T breast) was 3.96 µM. For the same molecule, the TGI (HS 578T breast) was 50 µM and 34 µM, the GI50 (HT29 colon) was 21.5 µM and the TGI (HT29 colon) was 23.7 µM and 56.8 µM. For the same molecule, the GI50 (IGROV1 ovarian) was 5.24 µM, the TGI (IGROV1 ovarian) was 37.5 µM and 18.1 µM and the TGI (K-562 leukemia) was 8.35 µM. The GI50 (KM12 colon) was 5 µM, the TGI (KM12 colon) was 16 µM and 22.7 µM and the GI50 (LOX IMVI melanoma) was 5.19 µM. The TGI (LOX IMVI melanoma) was 50 µM and 19.4 µM, the GI50 (M14 melanoma) was 8.94 µM and the TGI (M14 melanoma) was 21.6 µM and 20.8 µM. The GI50 (MALME-3M melanoma) was 2.67 µM, the TGI (MALME-3M melanoma) was 22.2 µM and 19.1 µM and the TGI (MCF7 breast) was 18.8 µM. The GI50 (MDA-MB-231 breast) was 13.3 µM, the TGI (MDA-MB-231 breast) was 28.3 µM and 39.8 µM and the GI50 (MDA-MB-435) was 3.15 µM. The TGI (MDA-MB-435) was 50 µM and 11.6 µM, the GI50 (MDA-N) was 4.72 µM and the TGI (MDA-N) was 50 µM and 17.1 µM. The TGI (MOLT-4 leukemia) was 6.48 µM, the GI50 (NCI-H226 lung) was 11 µM and the TGI (NCI-H226 lung) was 35 µM and 33.4 µM. For the same molecule, the GI50 (NCI-H23 lung) was 3.49 µM, the TGI (NCI-H23 lung) was 41.9 µM and 20.8 µM and the GI50 (NCI-H460 lung) was 7.14 µM. The TGI (NCI-H460 lung) was 50 µM and 21.6 µM, the GI50 (NCI-H522 lung) was 1.45 µM and the GI50 (NCI/ADR-RES ovarian) was 12 µM. For the same molecule, the TGI (NCI/ADR-RES ovarian) was 50 µM and 52.3 µM, the GI50 (OVCAR-3 ovarian) was 4.92 µM and the TGI (OVCAR-3 ovarian) was 15.2 µM and 22 µM. The GI50 (OVCAR-4 ovarian) was 3.17 µM, the TGI (OVCAR-4 ovarian) was 43.5 µM and 13.8 µM and the GI50 (OVCAR-5 ovarian) was 18.3 µM. The TGI (OVCAR-5 ovarian) was 24.2 µM and 42.2 µM, the GI50 (OVCAR-8 ovarian) was 5.5 µM and the TGI (OVCAR-8 ovarian) was 50 µM and 32 µM. For the same molecule, the GI50 (PC-3 prostate) was 11 µM, the TGI (PC-3 prostate) was 19.9 µM and 27.7 µM and the GI50 (RPMI-8226 leukemia) was 2.25 µM. The TGI (RPMI-8226 leukemia) was 14.9 µM and 6.7 µM, the GI50 (RXF 393 renal) was 3.42 µM and the TGI (RXF 393 renal) was 18.9 µM and 9.11 µM. The GI50 (SF-268 CNS) was 4.17 µM, the TGI (SF-268 CNS) was 16.2 µM and 16.5 µM and the GI50 (SF-295 CNS) was 10.5 µM. The TGI (SF-295 CNS) was 19.8 µM and 22.2 µM, the GI50 (SF-539 CNS) was 3 µM and the TGI (SF-539 CNS) was 17.9 µM and 10.7 µM. The TGI (SK-MEL-2 melanoma) was 22.7 µM and 34.5 µM, the TGI (SK-MEL-28 melanoma) was 50 µM and the GI50 (SK-MEL-5 melanoma) was 4.75 µM. The TGI (SK-MEL-5 melanoma) was 18.1 µM and 19 µM, the GI50 (SK-OV-3 ovarian) was 13.1 µM and the TGI (SK-OV-3 ovarian) was 24.1 µM and 25.8 µM. The GI50 (SN12C renal) was 6.06 µM, the TGI (SN12C renal) was 25.2 µM and 23.7 µM and the GI50 (SNB-19 CNS) was 5.8 µM. The TGI (SNB-19 CNS) was 15.7 µM and 18 µM, the GI50 (SNB-75 CNS) was 4.3 µM and the TGI (SNB-75 CNS) was 18.5 µM and 15.5 µM. The GI50 (SR leukemia) was 1.99 µM, the TGI (SR leukemia) was 14.2 µM and 6.05 µM and the GI50 (SW-620 colon) was 3.05 µM. The TGI (SW-620 colon) was 50 µM and 12.3 µM, the GI50 (T-47D breast) was 1.95 µM and the TGI (T-47D breast) was 27.3 µM and 4.92 µM. The GI50 (TK-10 renal) was 9.1 µM, the TGI (TK-10 renal) was 50 µM and 20.9 µM and the GI50 (U251 CNS) was 3.61 µM. The TGI (U251 CNS) was 14.1 µM and 12.8 µM, the GI50 (UACC-257 melanoma) was 9.98 µM and the TGI (UACC-257 melanoma) was 29.4 µM and 27.5 µM. The GI50 (UACC-62 melanoma) was 2.5 µM, the TGI (UACC-62 melanoma) was 16.6 µM and 6.05 µM and the TGI (UO-31 renal) was 14.6 µM.

`CCOC(=O)c1cc2c([nH]1)c(OC(C)=O)cc1c2ccn1Cc1ccccc1` was tested, and the TGI (786-0 renal) was > 100 µM, the TGI (A498 renal) was > 100 µM and the TGI (A549 NSCLC) was > 100 µM. For the same molecule, the TGI (BT-549 breast) was > 100 µM, the TGI (CAKI-1 renal) was > 100 µM and the TGI (CCRF-CEM leukemia) was > 100 µM. For the same molecule, the TGI (COLO 205 colon) was > 100 µM, the TGI (DU-145 prostate) was > 100 µM and the TGI (EKVX NSCLC) was > 100 µM. For the same molecule, the TGI (HCC-2998 colon) was > 100 µM, the TGI (HCT-116 colon) was > 100 µM and the TGI (HCT-15 colon) was > 100 µM. For the same molecule, the TGI (HL-60(TB) leukemia) was > 100 µM, the TGI (HOP-62 NSCLC) was > 100 µM and the TGI (HOP-92 NSCLC) was > 100 µM. For the same molecule, the TGI (HS 578T breast) was > 100 µM, the TGI (HT29 colon) was > 100 µM and the TGI (IGROV1 ovarian) was > 100 µM. The TGI (K-562 leukemia) was > 100 µM, the TGI (KM12 colon) was > 100 µM and the TGI (LOX IMVI melanoma) was > 100 µM. The TGI (M14 melanoma) was > 100 µM, the TGI (MALME-3M melanoma) was > 100 µM and the TGI (MCF7 breast) was > 100 µM. The TGI (MDA-MB-231 breast) was > 100 µM, the TGI (MDA-MB-435) was > 100 µM and the TGI (MDA-N) was > 100 µM. The TGI (MOLT-4 leukemia) was > 100 µM, the TGI (NCI-H226 lung) was > 100 µM and the TGI (NCI-H23 lung) was > 100 µM. For the same molecule, the TGI (NCI-H460 lung) was > 100 µM, the TGI (NCI/ADR-RES ovarian) was > 100 µM and the TGI (OVCAR-3 ovarian) was > 100 µM. The TGI (OVCAR-4 ovarian) was > 100 µM, the TGI (OVCAR-5 ovarian) was > 100 µM and the TGI (OVCAR-8 ovarian) was > 100 µM. For the same molecule, the TGI (PC-3 prostate) was > 100 µM, the TGI (RPMI-8226 leukemia) was > 100 µM and the TGI (RXF 393 renal) was > 100 µM. For the same molecule, the TGI (SF-268 CNS) was > 100 µM, the TGI (SF-295 CNS) was > 100 µM and the TGI (SF-539 CNS) was > 100 µM. For the same molecule, the TGI (SK-MEL-2 melanoma) was > 100 µM, the TGI (SK-MEL-28 melanoma) was > 100 µM and the TGI (SK-MEL-5 melanoma) was > 100 µM. The TGI (SK-OV-3 ovarian) was > 100 µM, the TGI (SN12C renal) was > 100 µM and the TGI (SNB-19 CNS) was > 100 µM. For the same molecule, the TGI (SNB-75 CNS) was > 100 µM, the TGI (SR leukemia) was > 100 µM and the TGI (SW-620 colon) was > 100 µM. The TGI (T-47D breast) was > 100 µM, the TGI (U251 CNS) was > 100 µM and the TGI (UACC-257 melanoma) was > 100 µM. For the same molecule, the TGI (UACC-62 melanoma) was > 100 µM and the TGI (UO-31 renal) was > 100 µM.
